Like-named read-outs stand apart in the source and are kept apart here.
Legend:
[1] = Substrate depletion approach, in vitro clearance (CLint) with rat liver S9; format: in vitro ADME; conditions: for microsomal CLint at 3 µM / CLint in liver S9 at 3 µM: Sprague-Dawley, rat, liver S9 fraction; for CLint in liver S9 at 3 µM: 3 µM substrate
Text: To develop a generic model, a fast and efficient approach needs to be applied to determine the hepatic clearance. To this end, a substrate depletion approach was used, as described by others (Jones and Houston [2004]; Obach [1999]; Obach and Reed-Hagen [2002]). Metabolic breakdown of the parent compound, referred to as “substrate depletion” is used to measure in vitro CLint of the parent compound, where the consumption rate of the parent compound using hepatic microsomes, hepatic S9 fractions or hepatocytes, is measured over a range of incubation times under linear conditions with respect to protein concentration and substrate concentration (Jones and Houston [2004]).
The CLint of the parent compounds via phase I and phase II metabolism was determined in incubations with liver S9 fraction from both male and female Sprague–Dawley rats, in the presence of all relevant co-factors NADPH, UDPGA, PAPS and acetyl CoA. To investigate whether the in vitro CLint value derived from incubations for individual reactions (with individual co-factors) is similar as the CLint value derived from incubations with all the co-factors together in one mixture, two approaches were applied. In the first approach, the parent compound was incubated with individual co-factors in Eppendorf tubes applying a final volume of 200 µL containing either 3 mM NADPH, 5 mM UDPGA (also including 5 mM MgCl2 and 0.025 mg/ml alamethicin), 0.2 mM PAPS, or 0.5 mM acetyl CoA, with 0.5 mg/ml liver S9 in 0.1 M potassium phosphate (pH 7.4) buffer. After pre-incubating the mixtures at 37 °C for 1 min, the reactions were started by adding 3 µM (final concentration) of the parent compound from a 100 times concentrated stock solution dissolved in DMSO. In the second approach, it was tested whether the methodology could be simplified by adding all the co-factors to one incubation mixture and the parent compound after pre-incubation. For both approaches, 14 time points were selected at which the reaction was terminated, being 0, 1, 2, 3, 4, 5, 7, 8.5, 10, 15, 20, 25, 30 and 45 min. To terminate the reaction 100 µL cold acetonitrile (ACN) was added to the mixture and the Eppendorf tubes were put on ice for 30 min. Subsequently, tubes were centrifuged at 15,000 rpm for 5 min (CT 15RE, Hitachi Koki Co., Ltd) and the supernatant was collected for UPLC analysis. For each incubation time point, a corresponding control was included, which was an incubation performed in the absence of co-factor(s). All incubations were performed in triplicate in three independent studies.
The concentration of the parent compound was quantified for all the incubations using UPLC analysis performed as described below. The ratio of remaining parent compound concentration between incubation sample (C compound) and the control without co-factor (C control) was calculated for each incubation time. Subsequently, the depletion curve of the parent compound [ln(C compound/C control)] against time was derived as described before (Jones and Houston [2004]; Obach [1999]; Obach and Reed-Hagen [2002]). The slope of the linear part of the depletion curve represents the elimination rate constant (k, min^−1) for elimination of the parent compound. Using the following equation, the in vitro clearance (CLint, in vitro) of the parent compound can be estimated: CLint, in vitro (µL/min/mg protein) = V (µL)/P (mg) × k (min^−1) (Obach [1999]; Sjögren et al. [2009]). V represents volume (µL) of incubation mixture and P is the protein amount (mg) in the mixture. The in vitro CLint value derived from incubations with all co-factors together in one mixture (approach 2) was compared with the sum of the CLint values derived from incubations with a single co-factor (approach 1). The in vitro CLint of the parent compound was scaled to a whole liver, assuming that the S9 protein concentration in the rat liver is 87 g/kg liver (Chiu and Ginsberg [2011]).
For BPA, the analytical method was slightly changed based on the method for E2. […]

[2] = test system: Caco-2; conditions: cited from earlier work
[3] = female, pH 7.4, female Sprague–Dawley rat liver S9, all co-factors (NADPH, UDPGA, PAPS, acetyl CoA) in one mixture, read-out: Female CLint
[4] = male, pH 7.4, male Sprague–Dawley rat liver S9, all co-factors (NADPH, UDPGA, PAPS, acetyl CoA) in one mixture, read-out: Male CLint
[5] = male, pH 7.4, male Sprague–Dawley rat liver S9, individual co-factor NADPH
[6] = male, pH 7.4, male Sprague–Dawley rat liver S9, individual co-factor PAPS
[7] = male, pH 7.4, male Sprague–Dawley rat liver S9, individual co-factor UDPGA
[8] = male, pH 7.4, male Sprague–Dawley rat liver S9, read-out: CLint, SUM of incubations with individual co-factors

Compound | CLint fold higher for female than for male rat liver S9 ([1]; all co-factors in one mixture) [fold] | microsomal CLint at 3 µM [1, 3] [µL/min/mg] | microsomal CLint at 3 µM [1, 4] [µL/min/mg] | CLint in liver S9 at 3 µM [1, 5] [µL/min/mg] | CLint in liver S9 at 3 µM [1, 6] [µL/min/mg] | CLint in liver S9 at 3 µM [1, 7] [µL/min/mg] | microsomal CLint at 3 µM [1, 8] [µL/min/mg] | Papp, Caco-2 ([2]; PBK model code, ref Yoshkawa et al. 2002) [x1E-6 cm/sec] | P app, Caco-2 ([2]; ref Yoshikawa et al. [2002]) [cm/s] | Female CLint ([1]; female Sprague–Dawley rat liver S9, all co-factors (NADPH, UDPGA, PAPS, acetyl CoA) in one mixture) [µl/min/mg protein]
CC(C)(c1ccc(O)cc1)c1ccc(O)cc1 [BPA, bisphenol A] | 1.1 | 432 ± 12.5 | 392 ± 6.7 | 60 ± 4.8 | 3.4 ± 2.1 | 340 ± 7.8 | 403 ± 9.4 | 20 | 2e-05 | 
C[C@]12CC[C@@H]3c4ccc(O)cc4CC[C@H]3[C@@H]1CC[C@@H]2O [E2, 17β-estradiol] |  | 65.5 | 175 ± 13.3 | 155 ± 26.7 | 4.4 ± 1.6 | 23.3 ± 0.9 | 182 ± 26.8 |  |  | 65.5 ± 12.3

— article PMC5866837, “Towards a generic physiologically based kinetic model to predict in vivo uterotrophic responses in rats by reverse dosimetry of in vitro estrogenicity data” (Archives of Toxicology, 2017)
